Experimental data published in ChEMBL document CHEMBL1201862, “PubChem BioAssay data set” (2004).
Calls of active or inactive are those of the source.

Columns and labels:
[1] = target: T1, Neuropeptide Y receptor type 1 (Homo sapiens, UniProt P25929); type: functional;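 also: HEK293 cells with a CNG channel challenged with NPY then isoproterenol; potency as antagonist that reverses NPY suppression of cAMP signal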
T1 sequence (P25929 whole entry): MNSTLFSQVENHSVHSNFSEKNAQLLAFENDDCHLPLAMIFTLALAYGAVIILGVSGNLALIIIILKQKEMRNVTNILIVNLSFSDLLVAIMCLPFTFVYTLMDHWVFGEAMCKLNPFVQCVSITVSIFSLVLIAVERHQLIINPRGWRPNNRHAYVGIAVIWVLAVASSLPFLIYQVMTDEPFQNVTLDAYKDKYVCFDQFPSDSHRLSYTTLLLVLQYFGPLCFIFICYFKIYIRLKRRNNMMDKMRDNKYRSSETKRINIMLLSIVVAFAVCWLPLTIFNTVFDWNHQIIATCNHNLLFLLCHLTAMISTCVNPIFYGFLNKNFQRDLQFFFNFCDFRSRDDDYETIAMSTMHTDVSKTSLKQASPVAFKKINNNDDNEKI

[2] = target: T2, Neuropeptide Y receptor type 2 (Homo sapiens, UniProt P49146); type: functional, cell-based;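 also: HEK293 cells expressing the receptor and a CNG channel; stimulus was NPY near EC95 followed by isoproterenol to raise cAMP; antagonist potency measured as restoring cAMP signal that NPY suppresses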
T2 sequence (P49146 whole entry): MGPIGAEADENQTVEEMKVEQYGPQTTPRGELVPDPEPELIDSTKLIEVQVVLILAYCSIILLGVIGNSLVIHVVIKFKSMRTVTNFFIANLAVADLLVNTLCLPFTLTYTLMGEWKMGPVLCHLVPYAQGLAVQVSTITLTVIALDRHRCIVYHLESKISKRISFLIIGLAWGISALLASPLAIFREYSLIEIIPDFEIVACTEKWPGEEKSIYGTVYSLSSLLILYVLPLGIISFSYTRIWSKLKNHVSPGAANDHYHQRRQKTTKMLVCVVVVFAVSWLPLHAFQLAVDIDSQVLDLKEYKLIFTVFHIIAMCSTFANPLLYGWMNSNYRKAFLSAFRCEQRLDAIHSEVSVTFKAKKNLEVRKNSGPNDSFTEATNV

[3] = A cytotoxicity screen of small molecule inhibitors of the PhoP region in Salmonella typhi identified in the primary screen. [Related pubchem assays: 1850, 1864, 1985 ]; type: functional
Cytochrome P450 2D6 = Cytochrome P450 2D6 (Homo sapiens, UniProt P10635);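 also: CYP2D6 member of a cytochrome P450 panel assay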
Cytochrome P450 3A4 = Cytochrome P450 3A4 (Homo sapiens, UniProt P08684);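 also: CYP3A4 tested as one member of a cytochrome P450 panel screen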
Estrogen receptor beta [4] = target: T3, Estrogen receptor beta (Homo sapiens, UniProt Q92731);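 also: recombinant ER-beta bound to coactivator SRC1 peptide in presence of estradiol agonist; inhibitors block coactivator peptide binding and lower the FRET signal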
Estrogen receptor beta [5] = target: T3, Estrogen receptor beta; experiment: blockers of SRC-3 recruitment to ERβ – biochemical, ELISA, streptavidin-HRP readout, orthogonal assay, confirmation (AID 1060)
[6] = target: Eukaryotic translation initiation factor 4E (Mus musculus, UniProt P63073); experiment: blockers of eIF4G binding by eIF4E – biochemical, TR-FRET, dose response (AID 855); type: functional;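 also: potency for disrupting eIF4E binding to eIF4GI seen as loss of FRET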
[7] = target: T4, Acyl-homoserine lactone acylase PvdQ (Pseudomonas aeruginosa (strain LESB58), UniProt Q9I194); experiment: PvdQ acylase enzyme activity blockers – biochemical, fluorescence, plate reader and imaging, cherry-picks, dose response (AID 493231)
T4 sequence (Q9I194 whole entry): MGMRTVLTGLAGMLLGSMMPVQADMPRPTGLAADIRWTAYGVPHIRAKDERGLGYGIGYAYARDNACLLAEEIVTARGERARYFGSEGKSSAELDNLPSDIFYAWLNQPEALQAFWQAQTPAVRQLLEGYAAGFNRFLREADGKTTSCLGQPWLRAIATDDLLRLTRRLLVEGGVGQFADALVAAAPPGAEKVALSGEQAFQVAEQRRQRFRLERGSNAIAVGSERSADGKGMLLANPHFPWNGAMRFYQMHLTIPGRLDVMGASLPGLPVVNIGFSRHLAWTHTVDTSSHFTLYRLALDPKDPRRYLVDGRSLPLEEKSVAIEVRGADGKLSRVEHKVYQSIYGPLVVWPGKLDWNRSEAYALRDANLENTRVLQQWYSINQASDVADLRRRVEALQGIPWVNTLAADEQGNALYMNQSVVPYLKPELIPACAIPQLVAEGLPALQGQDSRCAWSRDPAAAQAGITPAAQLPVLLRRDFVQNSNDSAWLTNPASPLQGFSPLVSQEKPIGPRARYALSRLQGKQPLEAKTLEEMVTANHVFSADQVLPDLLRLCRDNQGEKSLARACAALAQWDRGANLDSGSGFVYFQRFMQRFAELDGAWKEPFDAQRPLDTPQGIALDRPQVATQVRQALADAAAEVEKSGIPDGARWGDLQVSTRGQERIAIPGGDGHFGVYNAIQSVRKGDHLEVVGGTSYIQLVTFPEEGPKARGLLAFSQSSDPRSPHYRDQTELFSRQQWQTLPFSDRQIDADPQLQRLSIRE

Cytochrome P450 2C9 = Cytochrome P450 2C9 (Homo sapiens, UniProt P11712)
[8] = target: DNA dC->dU-editing enzyme APOBEC-3A (Homo sapiens, UniProt P31941); experiment: Dose Response confirmation of small molecule APOBEC3A DNA Deaminase Inhibitors via a fluorescence-based single-stranded DNA deaminase assay. [Related pubchem assays (depositor defined):AID493011, AID493024]; type: functional
[9] = target: DNA dC->dU-editing enzyme APOBEC-3G (Homo sapiens, UniProt Q9HC16); type: functional;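 also: Dose-response counterscreen measuring inhibition of APOBEC3G DNA deaminase activity, run while confirming APOBEC3A inhibitors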
[10] = THP-1 cell cytotoxicity, dose response, cytotoxicity control for non-replicating M. tuberculosis project (AID 489025); type: functional
cells = type: functional
Cytochrome P450 2C19 = Cytochrome P450 2C19 (Homo sapiens, UniProt P33261); experiment: Cytochrome panel assay with activity outcomes. Panel member name: p450-cyp2c19 Compounds with AC50 equal or less than 10 uM are considered active; type: functional; details: read-out: AC50
[11] = Luminescence Cell-Based Dose Retest to Confirm Inhibitors of Cancer Stem Cells. [Related pubchem assays (depositor defined):AID2717, AID2721]; type: functional; details: Homo sapiens
Vero = experiment: mammalian cell viability reduction – secondary assay, cytotoxicity control for West Nile virus antiviral project, dose response (AID 1650); type: functional; details: Chlorocebus sabaeus
[12] = target: T5, Replicative DNA helicase DnaB (Mycobacterium tuberculosis, UniProt P9WMR3); experiment: DnaB intein splicing inhibitors, dose response, biochemical, cell-free fluorescence (AID 449749); type: functional
T5 sequence (P9WMR3 whole entry): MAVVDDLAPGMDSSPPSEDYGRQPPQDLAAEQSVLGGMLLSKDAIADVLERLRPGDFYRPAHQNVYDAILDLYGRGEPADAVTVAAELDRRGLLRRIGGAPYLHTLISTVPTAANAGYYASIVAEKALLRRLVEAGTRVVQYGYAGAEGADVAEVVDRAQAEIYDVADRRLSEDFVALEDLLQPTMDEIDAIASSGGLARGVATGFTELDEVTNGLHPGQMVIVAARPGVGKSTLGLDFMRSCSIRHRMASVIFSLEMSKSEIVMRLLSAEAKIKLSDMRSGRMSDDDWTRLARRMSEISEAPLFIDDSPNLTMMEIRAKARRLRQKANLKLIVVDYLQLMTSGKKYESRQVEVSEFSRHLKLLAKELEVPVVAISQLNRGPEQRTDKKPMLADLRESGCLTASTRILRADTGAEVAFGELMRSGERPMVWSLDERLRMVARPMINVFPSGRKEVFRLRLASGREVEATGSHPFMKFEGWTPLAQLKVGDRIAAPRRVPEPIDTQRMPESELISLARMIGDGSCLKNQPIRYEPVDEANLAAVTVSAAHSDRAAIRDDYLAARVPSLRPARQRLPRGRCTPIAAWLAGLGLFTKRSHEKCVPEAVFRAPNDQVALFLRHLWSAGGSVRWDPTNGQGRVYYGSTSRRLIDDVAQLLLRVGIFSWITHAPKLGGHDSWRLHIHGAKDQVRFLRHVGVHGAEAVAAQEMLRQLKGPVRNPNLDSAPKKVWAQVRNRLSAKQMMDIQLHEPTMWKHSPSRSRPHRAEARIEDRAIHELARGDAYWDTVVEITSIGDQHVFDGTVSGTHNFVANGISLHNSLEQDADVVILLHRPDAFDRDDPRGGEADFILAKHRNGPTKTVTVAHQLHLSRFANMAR

Protein RecA = target: T6, Protein RecA (Mycobacterium tuberculosis, UniProt P9WHJ3); experiment: Fluorescence Cell-Free Homogeneous Dose Retest to Identify Inhibitors of RecA-Intein Splicing Activity. [Related pubchem assays (depositor defined):AID2097, AID2223, AID489010, AID492950]; type: functional
T6 sequence (P9WHJ3 whole entry): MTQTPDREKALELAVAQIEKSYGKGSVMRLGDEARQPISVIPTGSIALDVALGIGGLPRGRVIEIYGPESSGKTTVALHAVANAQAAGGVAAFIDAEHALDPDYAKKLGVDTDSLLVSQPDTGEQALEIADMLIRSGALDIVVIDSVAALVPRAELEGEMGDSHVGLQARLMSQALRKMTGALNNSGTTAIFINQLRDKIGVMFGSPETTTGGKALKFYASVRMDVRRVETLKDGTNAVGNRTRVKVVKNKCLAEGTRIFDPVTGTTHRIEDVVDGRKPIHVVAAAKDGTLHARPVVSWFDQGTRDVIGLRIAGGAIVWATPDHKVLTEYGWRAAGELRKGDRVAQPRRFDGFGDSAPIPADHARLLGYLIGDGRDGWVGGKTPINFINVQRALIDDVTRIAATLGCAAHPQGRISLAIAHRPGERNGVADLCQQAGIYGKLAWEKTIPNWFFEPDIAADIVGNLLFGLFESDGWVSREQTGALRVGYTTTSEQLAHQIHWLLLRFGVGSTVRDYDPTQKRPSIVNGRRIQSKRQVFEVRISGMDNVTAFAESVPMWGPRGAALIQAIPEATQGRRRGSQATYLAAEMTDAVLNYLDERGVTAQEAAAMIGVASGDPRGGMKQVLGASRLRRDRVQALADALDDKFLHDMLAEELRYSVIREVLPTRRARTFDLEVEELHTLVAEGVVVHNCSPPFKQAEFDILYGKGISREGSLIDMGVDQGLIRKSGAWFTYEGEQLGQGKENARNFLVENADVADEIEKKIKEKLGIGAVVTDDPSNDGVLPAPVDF

Sequence of DNA dC->dU-editing enzyme APOBEC-3A (P31941 whole entry): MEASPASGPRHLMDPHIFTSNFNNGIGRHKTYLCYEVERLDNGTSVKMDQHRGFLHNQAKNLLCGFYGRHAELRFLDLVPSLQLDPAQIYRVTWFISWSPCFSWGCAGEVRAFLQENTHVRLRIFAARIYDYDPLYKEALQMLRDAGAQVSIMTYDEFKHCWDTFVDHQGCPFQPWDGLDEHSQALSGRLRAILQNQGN
Sequence of Cytochrome P450 3A4 (P08684 whole entry): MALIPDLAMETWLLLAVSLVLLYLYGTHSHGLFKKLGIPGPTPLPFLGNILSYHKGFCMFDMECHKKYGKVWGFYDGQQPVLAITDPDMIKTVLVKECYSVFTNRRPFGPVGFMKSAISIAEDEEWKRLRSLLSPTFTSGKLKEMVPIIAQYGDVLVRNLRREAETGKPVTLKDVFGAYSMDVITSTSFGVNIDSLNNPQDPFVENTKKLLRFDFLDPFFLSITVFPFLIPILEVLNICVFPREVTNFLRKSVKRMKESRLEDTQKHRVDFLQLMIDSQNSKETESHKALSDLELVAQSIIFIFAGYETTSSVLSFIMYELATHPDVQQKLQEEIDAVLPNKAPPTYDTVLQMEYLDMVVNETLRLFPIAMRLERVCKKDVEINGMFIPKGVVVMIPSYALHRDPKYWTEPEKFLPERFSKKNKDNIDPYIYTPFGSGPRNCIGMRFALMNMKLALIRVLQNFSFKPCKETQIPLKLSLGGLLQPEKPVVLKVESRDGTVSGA
T3 sequence (Q92731 whole entry): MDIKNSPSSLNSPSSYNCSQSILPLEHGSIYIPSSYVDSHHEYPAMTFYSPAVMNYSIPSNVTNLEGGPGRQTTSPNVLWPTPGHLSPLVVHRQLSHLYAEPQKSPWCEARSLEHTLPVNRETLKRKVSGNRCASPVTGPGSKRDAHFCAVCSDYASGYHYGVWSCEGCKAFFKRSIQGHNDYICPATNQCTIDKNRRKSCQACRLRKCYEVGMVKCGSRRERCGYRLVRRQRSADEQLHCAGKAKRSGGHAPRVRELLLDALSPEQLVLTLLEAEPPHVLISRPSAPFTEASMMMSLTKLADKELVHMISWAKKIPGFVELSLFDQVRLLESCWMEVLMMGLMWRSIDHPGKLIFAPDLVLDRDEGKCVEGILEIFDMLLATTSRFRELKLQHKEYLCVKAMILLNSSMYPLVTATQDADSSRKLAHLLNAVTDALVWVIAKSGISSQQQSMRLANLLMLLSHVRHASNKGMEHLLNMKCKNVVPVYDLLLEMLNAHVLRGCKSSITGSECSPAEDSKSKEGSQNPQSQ
Sequence of DNA dC->dU-editing enzyme APOBEC-3G (Q9HC16 whole entry): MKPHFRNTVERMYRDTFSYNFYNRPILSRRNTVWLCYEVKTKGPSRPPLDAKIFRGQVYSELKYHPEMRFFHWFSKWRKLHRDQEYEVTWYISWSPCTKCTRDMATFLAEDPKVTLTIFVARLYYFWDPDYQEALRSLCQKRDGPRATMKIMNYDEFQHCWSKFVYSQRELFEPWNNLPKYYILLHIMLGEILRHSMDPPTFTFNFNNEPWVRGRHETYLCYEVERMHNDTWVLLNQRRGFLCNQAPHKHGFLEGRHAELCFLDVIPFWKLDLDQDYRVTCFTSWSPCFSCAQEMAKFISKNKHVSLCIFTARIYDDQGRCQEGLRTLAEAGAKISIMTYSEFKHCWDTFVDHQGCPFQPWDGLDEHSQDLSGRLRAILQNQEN
Sequence of Cytochrome P450 2D6 (P10635 whole entry): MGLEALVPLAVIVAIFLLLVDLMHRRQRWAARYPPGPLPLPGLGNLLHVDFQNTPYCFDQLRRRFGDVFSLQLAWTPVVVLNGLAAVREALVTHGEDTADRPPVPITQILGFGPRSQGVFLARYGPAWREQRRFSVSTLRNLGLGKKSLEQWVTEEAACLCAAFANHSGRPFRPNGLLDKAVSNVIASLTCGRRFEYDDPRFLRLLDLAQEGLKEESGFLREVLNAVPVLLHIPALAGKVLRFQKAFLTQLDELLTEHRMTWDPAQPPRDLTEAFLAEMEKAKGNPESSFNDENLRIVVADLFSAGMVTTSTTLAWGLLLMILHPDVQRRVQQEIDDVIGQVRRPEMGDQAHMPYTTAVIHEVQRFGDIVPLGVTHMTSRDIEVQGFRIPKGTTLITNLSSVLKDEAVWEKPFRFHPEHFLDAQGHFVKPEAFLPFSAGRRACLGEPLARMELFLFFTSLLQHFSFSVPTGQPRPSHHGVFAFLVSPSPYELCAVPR
Sequence of Cytochrome P450 2C19 (P33261 whole entry): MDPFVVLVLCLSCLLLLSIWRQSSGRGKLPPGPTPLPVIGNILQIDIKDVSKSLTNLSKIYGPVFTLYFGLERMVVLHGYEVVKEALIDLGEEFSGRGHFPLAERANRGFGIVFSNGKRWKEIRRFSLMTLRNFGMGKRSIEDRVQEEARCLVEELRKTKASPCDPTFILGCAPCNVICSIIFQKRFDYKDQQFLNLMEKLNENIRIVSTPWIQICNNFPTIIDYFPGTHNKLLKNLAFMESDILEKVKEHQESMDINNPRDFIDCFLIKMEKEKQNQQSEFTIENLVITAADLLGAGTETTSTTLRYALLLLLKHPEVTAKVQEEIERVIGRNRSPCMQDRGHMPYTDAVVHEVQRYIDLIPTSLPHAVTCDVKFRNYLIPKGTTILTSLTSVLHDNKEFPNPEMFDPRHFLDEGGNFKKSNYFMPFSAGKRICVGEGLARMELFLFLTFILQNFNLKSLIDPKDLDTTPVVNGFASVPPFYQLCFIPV
Sequence of Cytochrome P450 2C9 (P11712 whole entry): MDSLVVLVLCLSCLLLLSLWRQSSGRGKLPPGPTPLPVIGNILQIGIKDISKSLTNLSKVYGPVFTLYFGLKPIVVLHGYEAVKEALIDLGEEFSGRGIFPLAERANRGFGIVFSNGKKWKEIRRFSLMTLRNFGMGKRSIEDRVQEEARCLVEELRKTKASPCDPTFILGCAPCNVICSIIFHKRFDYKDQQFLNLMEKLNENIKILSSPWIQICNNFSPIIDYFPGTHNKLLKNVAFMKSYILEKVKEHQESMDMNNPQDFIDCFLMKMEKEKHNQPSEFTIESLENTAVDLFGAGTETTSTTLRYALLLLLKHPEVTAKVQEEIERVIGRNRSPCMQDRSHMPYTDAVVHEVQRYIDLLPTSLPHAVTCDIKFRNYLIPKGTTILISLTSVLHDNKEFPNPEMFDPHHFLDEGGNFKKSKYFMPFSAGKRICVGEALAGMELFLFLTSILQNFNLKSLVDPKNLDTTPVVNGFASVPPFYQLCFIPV
Sequence of Eukaryotic translation initiation factor 4E (P63073 whole entry): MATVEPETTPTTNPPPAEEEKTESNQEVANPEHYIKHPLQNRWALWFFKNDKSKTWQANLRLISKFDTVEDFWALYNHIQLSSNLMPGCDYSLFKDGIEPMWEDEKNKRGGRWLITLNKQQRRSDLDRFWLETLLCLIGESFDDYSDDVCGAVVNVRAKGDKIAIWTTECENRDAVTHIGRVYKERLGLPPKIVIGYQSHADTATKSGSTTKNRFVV

## O=C(CSCc1c(Cl)cccc1Cl)Nc1ccccc1-c1ccccc1
[1]
  IC50: 5.69 µM (active)
[2]
  IC50: 6.07 µM (active)

## COc1c(Br)cc2c(C)c(C(=O)N3CCOCC3)oc2c1Br
[3]
  EC50: > 50 µM (active)

## Clc1ccc(C2=Nn3c(nnc3-c3[nH]nc4c3CCC4)SC2)cc1Cl
[1]
  IC50: 9.8 µM (active)
[2]
  IC50: 8.69 µM (active)

## COc1ccc2nc(NC(=O)Nc3ccccc3)sc2c1 [FRENTIZOLE]
[3]
  EC50: > 50 µM (active)

## N=C(N)SCCc1ccc(CCSC(=N)N)cc1
Cytochrome P450 2D6
  AC50: 31.6 µM (inconclusive)
Cytochrome P450 3A4
  AC50: inconclusive

## CCOc1ccc2nc(NC(=O)CS(=O)(=O)c3ccc(C)cc3)sc2c1
[1]
  IC50: > 12 µM (not active)
[2]
  IC50: > 35 µM (not active)

## Cc1ccc2c(Cl)cc(Cl)c(OCC(=O)NCc3ccco3)c2n1
Estrogen receptor beta [4]
  IC50: < 1.56 µM (active)
Estrogen receptor beta [5]
  IC50: > 50 µM (not active)
[6]
  IC50: 12.5 µM (active)

## CSC1=NC(=O)/C(=C/c2ccc(SC)cc2)S1
[7]
  AC50: 16.2 µM (active)

## C1=C(N2CCOCC2)/C(=C/c2nc3ccccc3[nH]2)CC1
Estrogen receptor beta [4]
  IC50: 23.8 µM (active)
Estrogen receptor beta [5]
  IC50: > 109 µM (not active)

## O=S(=O)(c1ccccc1)N1CCC2(CC1)CN(C(c1ccccc1)c1ccccc1)C2
Cytochrome P450 3A4
  AC50: inconclusive

## Cc1ccc(/C=N/NC(=O)CSc2nc3ccccc3n2C)s1
[3]
  EC50: > 50 µM (active)
Cytochrome P450 2C9
  AC50: inconclusive

## Cc1ccc2c(c1)C1CN(C)CCC1N2CC(=O)N(C)c1ccccc1 (stereo not given)
[8]
  IC50: 5.51 µM (active)
[9]
  IC50: 9.94 µM (active)

## COc1ccccc1N=Nc1[nH]c2ccc(C)cc2c1O
[8]
  IC50: 6.59 µM (active)
[9]
  IC50: 6.6 µM (active)

## OCCNC1=NCCN1
[8]
  IC50: 2.2 µM (active)
[9]
  IC50: 1.95 µM (active)

## O=C(Nc1ccccc1)c1cc2ccccc2o1
[10]
  CC50: > 40 µM (active)
cells
  IC50: 6.22 µM (active)

## O=C(NC1CCCC1)c1cc(Cl)ccc1[N+](=O)[O-]
[7]
  AC50: 0.948 µM (active)

## CCOC(=O)N1CCN(C(=O)c2oc3ccc(S(=O)(=O)N4CCCCC4)cc3c2C)CC1
Cytochrome P450 2C19
  AC50: 28.2 µM (inconclusive)
Cytochrome P450 2D6
  AC50: 20 µM (inconclusive)
Cytochrome P450 3A4
  AC50: inconclusive

## CCN1CCN(c2ccc(S(=O)(=O)N3CCCCC3)cc2NC(=O)/C=C/c2ccc(OC(F)F)cc2)CC1
[8]
  IC50: 4.28 µM (active)
[9]
  IC50: 7.32 µM (active)

## Cc1ccc(OCCCCN(C)Cc2ccccc2)c(Br)c1
[1]
  IC50: 8.33 µM (active)
[2]
  IC50: 12 µM (not active)
[11]
  AC50: 9.59 µM (active)

## CC(=O)O[C@@H]1C[C@H]2C(C)(C)C(=O)C=C[C@]2(C)[C@H]2CC[C@@]3(C)[C@H](c4ccoc4)OC(=O)[C@H]4O[C@]43[C@@]21C [GEDUNIN]
Vero
  CC50: 22.2 µM (active)
[12]
  AC50: 4.57 µM (active)
Protein RecA
  EC50: 16.1 µM (active)

## N#CC1C(C#N)C2CCC1C1C2N1c1ccccc1 (stereo not given)
[7]
  AC50: 7.8 µM (active)
